Reference: publication PMC3653934, “Identification of Adiponectin Receptor Agonist Utilizing a Fluorescence Polarization Based High Throughput Assay” (PLoS ONE, 2013)
Read-outs that look alike come from different tables or passages of the source. One block for each molecule: values may come before it. Where a SMILES comes first, the peptide text is derived from it. [ ]: non-standard residue; d: D form. Nva = CCC[C@H](N)C(=O)O

Columns and labels:
[1] = tested on: PPARα phosphorylation (AdipoR2 signaling) in MCF-7 cells; assay: Western blot of PPARα phosphorylation in MCF-7 cells; assay type: cell-based, human; conditions: MCF-7 cells treated at IC50 concentration for 6 h
Protocol: (§1) Cells were grown to 80% confluence, harvested and aliquoted into 100 mm dishes in serum free media. Cells were allowed to attach overnight and then the serum free media was removed and then cells were washed in PBS twice. Different doses of compounds were prepared in the normal media and added to different dishes for an additional 6 h. Cells were washed 3 times with ice-cold PBS and cell lysates were prepared by scraping cells into lysis buffer A (RIPA buffer, 2 mM dithiothreitol […], 1×Halt protease inhibitor cocktail (Thermo scientific), and 1×Halt phosphatase inhibitor cocktail (Thermo scientific)). The cells were allowed to swell on ice (5 min), after which the homogenate was centrifuged. The supernatants were transferred to fresh tubes and protein concentrations were determined using the Bio-Rad protein assay (Bio-Rad Laboratories, Inc.) per manufacturer’s instructions. Aliquots of the cell lysates were stored at −80°C.
(§2) Equal amounts of total protein (50 µg) were subjected to electrophoresis (10% tris-HCl, 1.0 mm gels) and transferred to nitrocellulose membranes. Membranes were blocked in TBS containing 0.05% Tween 20 (TBST) and 5% nonfat milk or 5% BSA for 1 hour at room temperature. Appropriately diluted primary antibodies were incubated in TBST/5% nonfat milk or TBST/5% BSA for 2 h at room temperature or overnight at 4 °C. Membranes were washed in TBST three times for 15 min each. Appropriately diluted secondary antibodies were incubated in superblock blocking buffers (Thermo Scientific) for 1 h at room temperature. Membranes were washed in TBST three times for 15 min. Proteins were detected by Amersham™ ECL plus western blotting detection system (GE healthcare). The following antibodies were used: anti-AdipoR1 M18, anti-AdipoR2 C12 (Santa Cruz Biotechnology, Santa Cruz, CA), anti-p-AMPKα(T172), anti-AMPKα, and anti-β-actin (Cell Signaling, Danvers, MA).
(§3) It is well established that adiponectin activates AMPK and p38 MAPK through AdipoR1 or PPARα through AdipoR2 to mediate its downstream signaling cascades, [9], [12], [14]. […] The levels of phosphorylation of AMPK and phosphorylation of PPARα were examined and the relative expression levels of the phospho-protein to the total expression of protein levels were quantified using ImageJ software (NIH) ( Fig. 3 ).
(§4) Figure 3 Effects of hit compounds on adiponectin receptor signaling pathways. […] A total 50 µg of cell lysate was loaded to each lane. Western blot was performed follow the protocol in materials and methods section.

[2] = tested on: MCF-7 cells; assay: Cell viability assay (CellTiter-Blue) in MCF-7 cells; assay type: cell-based; conditions: Homo sapiens, read-out: IC50 (µM) MCF-7 cells, cell viability
Protocol: (§5) All cell lines were obtained from the American Type Culture Collection (ATCC). MCF-7 and MDA-MB-231 cells were maintained in DMEM containing 10% fetal bovine serum and supplied with 1% penicillin/streptomycin. All cells were maintained in a 5% CO2 atmosphere at 37°C.
(§6) The effects of the lead compounds on cell proliferation were tested in MCF-7 and MDA-MB-231 cells. Cells were grown to 80% confluence, harvested and aliquoted into 384-well plates in a total volume of 45 µl per well. The outer wells were inoculated with sterile water to minimize evaporation from the sample wells. Cells were allowed to attach overnight and 5 µl culture media containing either vehicles or drug were added. Cell proliferation was evaluated using CellTilter-Blue reagent (Promega, China) according to manufacturer’s instructions after 72-h incubation. Fluorescence was measured with an excitation at 530 nm and emission at 590 nm. After background subtraction, cell viability values were normalized to vehicle controls and expressed as percentage of the mean of the relative vehicle controls.
(§7) To further confirm the agonistic activity of hit compounds, MDA-MB-231 and MCF-7 cells were treated with different concentrations of g-Ad or drug (20 µM to 1.2 nM) for 72 hours and cell viability was measured. Thus, four compounds (arctiin, (-)-arctigenin, matairesinol and gramine) that show agonistic activity against adiponectin receptor 1 and four compounds (deoxyschizandrin, taxifoliol, syringing and parthenolide) that show agonistic activity against adiponectin receptor 2 were identified.

[3] = tested on: AMPK phosphorylation (AdipoR1 signaling) in MDA-MB-231 cells; assay: Western blot of AMPK phosphorylation in MDA-MB-231 cells; assay type: cell-based, human; conditions: MDA-MB-231 cells treated at IC50 concentration for 6 h
Protocol: as §1, §2, §3, §4

[4] = tested on: MDA-MB-231 cells; assay: Cell viability assay (CellTiter-Blue) in MDA-MB-231 cells; assay type: cell-based; conditions: Homo sapiens, read-out: IC50 (µM) MDA-MB-231 cells, cell viability
Protocol: as §5, §6, §7

[5] = biological target: T1, AdipoR1 (Homo sapiens, UniProt Q96A54); assay: Competitive FP assay, displacement of probe 1 from AdipoR1; assay type: binding
T1 construct: The cDNAs encoding full-length of AdipoR1 or AdipoR2 were then sub-cloned into the mammalian expression vector pBEX and pcDNA3.1–Myc-His(+); His (C); Myc (C); made in house; host or cells: CHO cells
T1 sequence (Q96A54 1-375): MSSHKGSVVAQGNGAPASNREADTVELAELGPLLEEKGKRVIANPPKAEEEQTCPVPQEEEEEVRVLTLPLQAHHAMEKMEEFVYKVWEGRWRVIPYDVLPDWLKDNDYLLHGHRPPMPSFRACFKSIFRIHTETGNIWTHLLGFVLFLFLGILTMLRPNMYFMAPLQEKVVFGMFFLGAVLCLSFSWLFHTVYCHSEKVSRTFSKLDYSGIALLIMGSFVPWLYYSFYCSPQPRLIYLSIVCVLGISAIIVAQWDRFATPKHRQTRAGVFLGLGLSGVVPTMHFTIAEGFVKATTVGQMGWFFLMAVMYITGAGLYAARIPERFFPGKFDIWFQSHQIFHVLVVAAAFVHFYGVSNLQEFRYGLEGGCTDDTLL
Protocol: (§8) Unlabeled short peptide 3 was titrated against the FITC-labeled peptide and adiponectin receptor mixture. Plates were incubated at room temperature for up to 3 hours or 30 min at different temperatures. FP values were taken and IC50 values were calculated.
(§9) Master mixtures containing fluorescein-labeled probe 1 and adiponectin receptor (AdipoR1 or AdiopR2, 2 µM and probe 1 at 100 nM) in a reaction volume of 19 µl were prepared and loaded to plates. The library compounds (10 µM –0.078 µM, half dilutions) were prepared separately and transferred into the assay plates. The first and last columns of each plate were used as positive and negative control wells. Wells containing the drug only were used as controls to detect auto-fluorescence of the compounds in the total fluorescence assay. After subtraction of the background signal, data was processed and the IC50 values were determined by non-linear least square fitting using SigmaPlot 11.0.
(§10) Given that the present study is a screening study, peptide 3 was chosen as the positive control for cost-efficiency purposes.
(§11) To optimize the FP assay properly, it was necessary to assess the stability of the FP assay. The conditions for the FP assay were established by testing various parameters including incubation temperature, time, TF values, ΔmP values, and DMSO tolerance. […] In summary, the competitive FP binding assay conditions ideal for identifying adiponectin receptor agonists are: i) 2 µM adiponectin receptor, ii) 100 nM probe 1, iii) 5% final DMSO concentration (v/v), and iv) incubation for 30 min at 25°C before reading the plate.
(§12) A pilot screen against the natural product library of 10,000 compounds described above was performed at screening concentrations of 10 µM to 0.078 µM (half serial dilutions) in 5% DMSO (v/v). Controls present in each assay plate consisted of 5% DMSO (negative control) or peptide 3 (positive control).
(§13) We screened a library of 10,000 natural compounds for adiponectin agonists. […] 46 compounds that could generate IC50 curves were identified as initial hits.

[6] = biological target: T2, AdipoR2 (UniProt Q86V24); assay: Competitive FP assay, displacement of probe 1 from AdipoR2; assay type: binding, human
T2 sequence (Q86V24 1-386): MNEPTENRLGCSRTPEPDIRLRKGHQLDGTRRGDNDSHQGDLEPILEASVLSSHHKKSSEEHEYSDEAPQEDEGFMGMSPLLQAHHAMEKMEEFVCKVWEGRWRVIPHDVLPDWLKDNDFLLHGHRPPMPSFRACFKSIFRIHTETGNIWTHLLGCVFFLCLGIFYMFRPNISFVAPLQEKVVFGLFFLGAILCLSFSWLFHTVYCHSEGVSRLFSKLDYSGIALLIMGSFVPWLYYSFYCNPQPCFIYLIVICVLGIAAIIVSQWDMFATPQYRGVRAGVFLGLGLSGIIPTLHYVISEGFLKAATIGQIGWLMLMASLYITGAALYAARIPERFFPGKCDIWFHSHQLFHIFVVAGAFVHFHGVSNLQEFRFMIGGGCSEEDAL
Protocol: as §8, §9, §10, §11, §12, §13

[7] = primary screen, 2 µM receptor, 100 nM probe 1, 30 min, 25°C, read-out: IC50 vs AdipoR1 (µM) Primary screen
[8] = validation, 2 µM receptor, 100 nM probe 1, 30 min, 25°C, read-out: IC50 vs AdipoR1 (µM) Validated
[9] = primary screen, 2 µM receptor, 100 nM probe 1, 30 min, 25°C, read-out: IC50 vs AdipoR2 (µM) Primary screen
[10] = validation, 2 µM receptor, 100 nM probe 1, 30 min, 25°C, read-out: IC50 vs AdipoR2 (µM) Validated

Molecule: COc1cc(C[C@H]2C(=O)OC[C@@H]2Cc2ccc(OC)c(OC)c2)ccc1O [Compound 2, (-)-Arctigenin]
- Effect on PPARα phosphorylation level [1]: inhibited
- IC50 [5, 7]: 2.6 µM
- IC50 [5, 8]: 2.2 ± 0.8 µM
- IC50 [6, 9]: > 5 µM
- IC50 [6, 10]: > 5 µM
- IC50 ([2]; MCF7, 72 h): > 10 µM
- Effect on AMPK phosphorylation [3]: elevated
- IC50 ([4]; MDA-MB-231, 72 h): 4.5 ± 0.4 µM

Molecule: COc1cc(/C=C/CO)cc(OC)c1O[C@@H]1O[C@H](CO)[C@@H](O)[C@H](O)[C@H]1O [Compound 5, Syringin]
- Effect on PPARα phosphorylation level [1]: increased
- IC50 [5]: > 5 µM
- IC50 ([5]; read-out: IC50 vs AdipoR1 (µM) Validated, validation, 2 µM receptor, 100 nM probe 1, 30 min, 25°C): > 5 µM
- IC50 [6, 9]: 4.6 µM
- IC50 [6, 10]: 4.5 ± 0.5 µM
- IC50 ([2]; MCF7, 72 h): 6.8 ± 0.8 µM
- Effect on AMPK phosphorylation [3]: decreased
- IC50 ([4]; MDA-MB-231, 72 h): > 10 µM

Molecule: O=c1cc(-c2ccccc2)oc2cc(O)cc(O)c12 [Compound 8, Chrysin]
- IC50 [5, 7]: > 5 µM
- IC50 [5, 8]: > 5 µM
- IC50 ([6]; read-out: IC50 vs AdipoR2 (µM) Primary screen, primary screen, 2 µM receptor, 100 nM probe 1, 30 min, 25°C): 4.9 µM
- IC50 ([6]; read-out: IC50 vs AdipoR2 (µM) Validated, validation, 2 µM receptor, 100 nM probe 1, 30 min, 25°C): > 5 µM
- IC50 vs AdipoR2 (µM) Validated ([6]; validation, 2 µM receptor, 100 nM probe 1, 30 min, 25°C): failed in the validation

Now from value to molecule, other results behind:

- IC50 ([2]; MCF7, 72 h, 20 µM to 1.2 nM): 4.4 ± 0.5 µM
- IC50 ([4]; MDA-MB-231, 72 h, 20 µM to 1.2 nM): > 10 µM
Molecule: O=C1c2c(O)cc(O)cc2O[C@H](c2ccc(O)c(O)c2)[C@H]1O [Compound 6, Taxifoliol]
- Effect on PPARα phosphorylation level [1]: increased
- Effect on AMPK phosphorylation [3]: decreased

- IC50 ([6]; positive control validation, titrated against probe 1 – AdipoR2 mixture, read-out: IC50 against AdipoR2, competition with probe 1): 2.46 ± 0.25 µM
Molecule: CCC[C@H](NC(=O)[C@@H]1CCCN1C(=O)[C@@H](NC(=O)[C@H](N)CC(N)=O)[C@@H](C)CC)C(=O)N[C@@H](CC(C)C)C(=O)N[C@@H](Cc1ccc(O)cc1)C(=O)N[C@H](CO)C(=O)N[C@@H](Cc1ccccc1)C(=O)N[C@@H](C)C(=O)N[C@H](CO)C(N)=O [Peptide 3, H-DAsn-Ile-Pro-Nva-Leu-Tyr-DSer-Phe-Ala-DSer-NH2, reference compound] (H-[dN]IP[Nva]LY[dS]FA[dS]-NH2)

- IC50 ([5]; positive control validation, titrated against probe 1 – AdipoR1 mixture, read-out: IC50 against AdipoR1, competition with probe 1): 3.4 ± 0.7 µM
B1: g-Ad: recombinant carboxyl-terminal globular domain of adiponectin with C-terminal His-tag, produced in BL21(DE3) cells; positive control (protein)
chain: GEGAYVYRSAFSVGLETYVTIPNMPIRFTKIFYNQQNHYDGSTGKFHCNIPGLYYFAYHITVYMKDVKVSLFKKDKAMLFTYDQYQENNVDQASGSVLLHLEVGDQVWLQVYGEGERNGLYADNDNDSTFTGFLLYHDTN
modifications: C-terminal His-tag left out
